Test results published in ChEMBL document CHEMBL3804794, “Design, synthesis and biological evaluation of pyrazol-furan carboxamide analogues as novel Akt kinase inhibitors” (Eur J Med Chem, 2016).
pIC50: −log10 of the molar value. Each block holds one molecule with its values, some of them ahead of it.

Legend:
[1] = target: T1, RAC-alpha serine/threonine-protein kinase (Homo sapiens, UniProt P31749); test: Inhibition of Akt1 (unknown origin) expressed in Escherichia coli using peptide substrate after 1 hr by HTRF assay
T1 sequence (P31749 whole entry): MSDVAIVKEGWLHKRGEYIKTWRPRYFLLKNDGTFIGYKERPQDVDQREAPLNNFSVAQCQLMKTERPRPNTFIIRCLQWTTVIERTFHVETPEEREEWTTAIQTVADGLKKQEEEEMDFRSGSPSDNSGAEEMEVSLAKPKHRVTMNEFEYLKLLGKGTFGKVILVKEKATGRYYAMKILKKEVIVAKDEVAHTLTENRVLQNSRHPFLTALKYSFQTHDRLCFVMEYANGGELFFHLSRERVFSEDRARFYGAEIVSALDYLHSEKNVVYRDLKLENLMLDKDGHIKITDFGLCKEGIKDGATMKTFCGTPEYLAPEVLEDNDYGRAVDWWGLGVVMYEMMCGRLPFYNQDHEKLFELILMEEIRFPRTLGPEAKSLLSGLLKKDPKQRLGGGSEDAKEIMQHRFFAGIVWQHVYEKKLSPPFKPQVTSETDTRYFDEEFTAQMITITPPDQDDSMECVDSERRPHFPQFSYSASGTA

[2] = Antiproliferative activity against human OVCAR8 cells after 72 hrs by SRB assay; format: functional, cell-based; details: OVCAR-8, 72 h
[3] = Antiproliferative activity against human HCT116 cells after 72 hrs by SRB assay; format: functional, cell-based; details: HCT-116, 72 h
[4] = Inhibition of Akt in human PTEN-null LNCAP cells assessed as suppression in PRAS40 phosphorylation after 1 hr by ELISA analysis; format: cell-based
[5] = target: T1, RAC-alpha serine/threonine-protein kinase; test: Inhibition of Akt1 (unknown origin) expressed in Escherichia coli at 1 ug/ml using peptide substrate after 1 hr by HTRF assay
[6] = Effect on total GSK3beta levels in human PC3 cells at 1 to 10 uM after 3 hrs by western blot analysis; format: ADME, cell-based; details: pc-3, 3 h
[7] = Effect on total Akt levels in human PC3 cells at 1 to 10 uM after 3 hrs by western blot analysis; format: ADME, cell-based; details: pc-3, 3 h
[8] = Effect on total GAPDH levels in human PC3 cells at 1 to 10 uM after 3 hrs by western blot analysis; format: ADME, cell-based; details: pc-3, 3 h
[9] = Inhibition of PKA (unknown origin) after 60 mins by Z-LYTE kinase assay; set-up: species or system Homo sapiens
[10] = target: T2, Testis-specific serine/threonine-protein kinase 1 (Mus musculus, UniProt Q61241); test: Inhibition of mouse TSSK1 by luminescent ADP-Glo assay kit
T2 sequence (Q61241 whole entry): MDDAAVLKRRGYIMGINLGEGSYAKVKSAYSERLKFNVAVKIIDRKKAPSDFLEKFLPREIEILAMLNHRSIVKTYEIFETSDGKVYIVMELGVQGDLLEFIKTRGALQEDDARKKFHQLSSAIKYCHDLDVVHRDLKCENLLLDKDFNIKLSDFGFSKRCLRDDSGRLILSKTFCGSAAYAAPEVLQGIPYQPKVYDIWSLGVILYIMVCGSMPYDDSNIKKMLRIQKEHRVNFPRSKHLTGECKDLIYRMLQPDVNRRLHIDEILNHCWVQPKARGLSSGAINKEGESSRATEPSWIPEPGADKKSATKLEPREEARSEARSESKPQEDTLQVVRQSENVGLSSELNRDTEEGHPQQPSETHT

Structure (SMILES): Cn1ncc(Br)c1-c1coc(C(=O)NC2(c3ccc(F)cc3)CCNCC2)c1
pIC50 [1]: 5.69
pIC50 [2]: 4.70
pIC50 [3]: 4.74

Structure (SMILES): NC1(C(=O)N[C@@H](CCO)c2ccc(Cl)cc2)CCN(c2nc[nH]c3nccc2-3)CC1 [CAPIVASERTIB]
pIC50 [2]: 5.14
pIC50 [3]: 5.28
pIC50 [4]: 6.47

Structure (SMILES): Cn1nccc1-c1oc(C(=O)NC2(c3ccc(Cl)c(Cl)c3)CCNCC2)cc1Br
inhibition [5]: 49.4%
pIC50 [2]: 5.16
pIC50 [3]: 4.61

Structure (SMILES): Cn1ncc(Cl)c1-c1cc(C(=O)N[C@H](CN)Cc2ccc(F)c(F)c2)oc1Cl [UPROSERTIB]
pIC50 [4]: 7.12

Structure (SMILES): Cn1ncc(Br)c1-c1oc(C(=O)NC2(c3ccc(Cl)c(Cl)c3)CCNCC2)cc1Br
inhibition [5]: 43.5%
pIC50 [2]: 5.24
pIC50 [3]: 4.79

Structure (SMILES): Cn1ncc(Br)c1-c1ccc(C(=O)NC2(c3ccc(Cl)c(Cl)c3)CCNCC2)cc1
pIC50 [1]: 5.85
pIC50 [2]: 5.71
pIC50 [3]: 4.96

Structure (SMILES): CN[C@@H]1C[C@H]2O[C@@](C)([C@@H]1OC)n1c3ccccc3c3c4c(c5c6ccccc6n2c5c31)C(=O)NC4 [STAUROSPORINE]
pIC50 [9]: 8.09
pIC50 [10]: 9.48

Structure (SMILES): Cn1ncc(Cl)c1-c1oc(C(=O)NC2(c3ccc(Cl)c(Cl)c3)CCNCC2)cc1Br
pIC50 [1]: 5.83
pIC50 [2]: 5.23
pIC50 [3]: 5.16

Structure (SMILES): Cn1ncc(Br)c1-c1cc(C(=O)NC2(c3ccc(Cl)c(Cl)c3)CCNCC2)n(C)c1Br
inhibition [5]: 30.3%
pIC50 [2]: 5.33
pIC50 [3]: 5.11

Structure (SMILES): Cn1ncc(Cl)c1-c1ccc(C(=O)NC2(c3ccc(Cl)c(Cl)c3)CCNCC2)cc1
pIC50 [1]: 5.72
pIC50 [2]: 5.28
pIC50 [3]: 4.93

Second part, led by results:

pIC50 [1]: 6.41
Structure (SMILES): Cn1ncc(Cl)c1-c1cc(C(=O)NC2(c3ccc(F)cc3)CCNCC2)oc1Cl
pIC50 [2]: 5.32
pIC50 [3]: 5.19

pIC50 [1]: 6.36
Structure (SMILES): Cn1ncc(Br)c1-c1coc(C(=O)NC2(c3ccc(Cl)c(Cl)c3)CCNCC2)c1
pIC50 [2]: 5.42
pIC50 [3]: 5.40

pIC50 [1]: 6.04
Structure (SMILES): Cn1nccc1-c1csc(C(=O)NC2(c3ccc(F)cc3)CCNCC2)c1
pIC50 [2]: 4.84
pIC50 [3]: 4.61

pIC50 [1]: 7.15
Structure (SMILES): Cn1nccc1-c1csc(C(=O)NC2(c3ccc(Cl)c(Cl)c3)CCNCC2)c1
pIC50 [2]: 5.79
pIC50 [3]: 5.41

pIC50 [1]: 6.49
Structure (SMILES): Cn1ncc(Cl)c1-c1csc(C(=O)NC2(c3ccc(F)cc3)CCNCC2)c1
pIC50 [2]: 5.09
pIC50 [3]: 4.74

pIC50 [1]: 7.21
pIC50 [4]: 7.52
Structure (SMILES): Cn1ncc(Cl)c1-c1cc(C(=O)NC2(c3ccc(Cl)c(Cl)c3)CCNCC2)oc1Cl
pIC50 [2]: 5.01
pIC50 [3]: 5.11
Activity [6]: Non-toxic
Activity [7]: Non-toxic
Activity [8]: Non-toxic

pIC50 [1]: 5.90
Structure (SMILES): Cn1cc(-c2c(Br)cnn2C)cc1C(=O)NC1(c2ccc(Cl)c(Cl)c2)CCNCC1
pIC50 [2]: 5.55
pIC50 [3]: 4.89

pIC50 [1]: 6.44
Structure (SMILES): Cn1ncc(Br)c1-c1csc(C(=O)NC2(c3ccc(F)cc3)CCNCC2)c1
pIC50 [2]: 5.11
pIC50 [3]: 4.76

pIC50 [1]: 6.07
Structure (SMILES): Cn1ncc(Cl)c1-c1c(Cl)c(C(=O)NC2(c3ccc(Cl)c(Cl)c3)CCNCC2)n(C)c1Cl
pIC50 [2]: 5.75
pIC50 [3]: 5.03

pIC50 [1]: 6.04
Structure (SMILES): Cn1ncc(Cl)c1-c1coc(C(=O)NC2(c3ccc(F)cc3)CCNCC2)c1
pIC50 [2]: 5.19
pIC50 [3]: 5.00
